Measurements from publication PMC9728921, “Characterization of a KDM5 small molecule inhibitor with antiviral activity against hepatitis B virus” (PLOS ONE, 2022).
Values belong to the compound of their own block, whether it stands above or below them.

What was measured:
[1] = molecular target: KDM6B (Homo sapiens, UniProt O15054); assay: KDM6B enzymatic assay (AlphaLISA); type: biochemical
Description: (§1) The following assay protocol was used for all histone demethylases tested except KDM1A, KDM5A, B, and D, which are described below. Compounds were serially diluted into a 384-well Alpha plate as a DMSO solution and mixed with 5 μL reaction buffer (buffer A) containing 50 mM HEPES (pH 7.0), 0.1% BSA, and 0.003% Tween-20. The enzyme of interest was pre-incubated with 15 μM of Fe^2+ for 10 min (except 30 min for KDM2B) in reaction buffer A. 5 μL of the enzyme mixture was added to each of the compound-containing wells and incubated for 10 min. The reaction was started by addition of a 5 μL mixture containing 300 nM peptide substrate, 75 μM L-ascorbic acid, and 30 μM α-ketoglutarate in buffer A. This final 15 μL of reaction mixture was incubated for 20 min for KDM5B and 1 hour for the other KDM enzymes. The reaction was quenched with 10 μL of diluted AlphaLISA Acceptor beads (1:400) in Epigenetics Buffer and incubated for 60 min. The Donor beads were diluted 1:400 into Epigenetics Buffer in the dark and 10 μL of this was added to each well and incubated for another 60 min in the dark. The assay plates were read on an Enspire plate reader (PerkinElmer) using a standard AlphaLISA program.
(§2) Data was analyzed using GraphPad Prism 6.0 (La Jolla, CA). […] IC50 values were calculated as an average of at least two independent experiments.

[2] = molecular target: KDM7B (Homo sapiens, UniProt Q9UPP1); assay: KDM7B enzymatic assay (AlphaLISA); type: biochemical; details: enzyme concentration 2.5 nM
Chain of KDM7B (Q9UPP1 whole entry): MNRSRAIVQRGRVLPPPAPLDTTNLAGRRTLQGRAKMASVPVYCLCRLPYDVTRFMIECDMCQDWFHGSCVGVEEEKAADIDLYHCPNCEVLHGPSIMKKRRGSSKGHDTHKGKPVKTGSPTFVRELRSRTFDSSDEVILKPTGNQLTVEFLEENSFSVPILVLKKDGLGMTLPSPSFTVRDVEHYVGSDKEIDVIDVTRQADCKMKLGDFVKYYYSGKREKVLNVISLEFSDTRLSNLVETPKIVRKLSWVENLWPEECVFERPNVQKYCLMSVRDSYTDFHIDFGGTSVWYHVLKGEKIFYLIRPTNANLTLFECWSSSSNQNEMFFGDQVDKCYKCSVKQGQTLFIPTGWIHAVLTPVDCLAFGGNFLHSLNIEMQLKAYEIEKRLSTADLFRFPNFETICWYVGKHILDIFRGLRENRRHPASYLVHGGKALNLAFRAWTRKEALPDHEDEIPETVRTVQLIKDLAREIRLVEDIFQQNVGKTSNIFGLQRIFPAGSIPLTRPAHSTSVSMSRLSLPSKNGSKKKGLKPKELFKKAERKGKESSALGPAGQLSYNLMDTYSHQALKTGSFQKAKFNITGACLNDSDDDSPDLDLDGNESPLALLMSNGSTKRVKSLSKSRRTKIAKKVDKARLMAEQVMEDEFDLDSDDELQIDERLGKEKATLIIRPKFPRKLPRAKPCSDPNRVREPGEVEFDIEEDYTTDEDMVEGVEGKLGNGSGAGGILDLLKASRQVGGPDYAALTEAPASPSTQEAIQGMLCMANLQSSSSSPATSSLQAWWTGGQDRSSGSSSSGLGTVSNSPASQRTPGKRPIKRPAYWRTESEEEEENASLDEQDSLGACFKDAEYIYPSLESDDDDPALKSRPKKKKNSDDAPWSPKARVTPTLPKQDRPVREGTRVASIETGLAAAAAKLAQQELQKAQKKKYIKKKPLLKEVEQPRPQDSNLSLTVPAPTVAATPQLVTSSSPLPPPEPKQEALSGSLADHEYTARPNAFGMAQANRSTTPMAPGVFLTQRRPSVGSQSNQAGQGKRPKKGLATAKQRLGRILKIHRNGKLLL
Description: as §1, §2

[3] = system: HBV (genotype C, GTC); parameters: method as in PMID 31226346; details: humanized mouse model of HBV infection; cited from earlier work
[4] = molecular target: T1, KDM5B (Homo sapiens, UniProt Q9UGL1); assay: KDM5B enzymatic assay (CisBio HTRF); type: biochemical
T1 construct: purchased Reaction Biology Corp (assay run there as a contract service)
T1 sequence (Q9UGL1 whole entry): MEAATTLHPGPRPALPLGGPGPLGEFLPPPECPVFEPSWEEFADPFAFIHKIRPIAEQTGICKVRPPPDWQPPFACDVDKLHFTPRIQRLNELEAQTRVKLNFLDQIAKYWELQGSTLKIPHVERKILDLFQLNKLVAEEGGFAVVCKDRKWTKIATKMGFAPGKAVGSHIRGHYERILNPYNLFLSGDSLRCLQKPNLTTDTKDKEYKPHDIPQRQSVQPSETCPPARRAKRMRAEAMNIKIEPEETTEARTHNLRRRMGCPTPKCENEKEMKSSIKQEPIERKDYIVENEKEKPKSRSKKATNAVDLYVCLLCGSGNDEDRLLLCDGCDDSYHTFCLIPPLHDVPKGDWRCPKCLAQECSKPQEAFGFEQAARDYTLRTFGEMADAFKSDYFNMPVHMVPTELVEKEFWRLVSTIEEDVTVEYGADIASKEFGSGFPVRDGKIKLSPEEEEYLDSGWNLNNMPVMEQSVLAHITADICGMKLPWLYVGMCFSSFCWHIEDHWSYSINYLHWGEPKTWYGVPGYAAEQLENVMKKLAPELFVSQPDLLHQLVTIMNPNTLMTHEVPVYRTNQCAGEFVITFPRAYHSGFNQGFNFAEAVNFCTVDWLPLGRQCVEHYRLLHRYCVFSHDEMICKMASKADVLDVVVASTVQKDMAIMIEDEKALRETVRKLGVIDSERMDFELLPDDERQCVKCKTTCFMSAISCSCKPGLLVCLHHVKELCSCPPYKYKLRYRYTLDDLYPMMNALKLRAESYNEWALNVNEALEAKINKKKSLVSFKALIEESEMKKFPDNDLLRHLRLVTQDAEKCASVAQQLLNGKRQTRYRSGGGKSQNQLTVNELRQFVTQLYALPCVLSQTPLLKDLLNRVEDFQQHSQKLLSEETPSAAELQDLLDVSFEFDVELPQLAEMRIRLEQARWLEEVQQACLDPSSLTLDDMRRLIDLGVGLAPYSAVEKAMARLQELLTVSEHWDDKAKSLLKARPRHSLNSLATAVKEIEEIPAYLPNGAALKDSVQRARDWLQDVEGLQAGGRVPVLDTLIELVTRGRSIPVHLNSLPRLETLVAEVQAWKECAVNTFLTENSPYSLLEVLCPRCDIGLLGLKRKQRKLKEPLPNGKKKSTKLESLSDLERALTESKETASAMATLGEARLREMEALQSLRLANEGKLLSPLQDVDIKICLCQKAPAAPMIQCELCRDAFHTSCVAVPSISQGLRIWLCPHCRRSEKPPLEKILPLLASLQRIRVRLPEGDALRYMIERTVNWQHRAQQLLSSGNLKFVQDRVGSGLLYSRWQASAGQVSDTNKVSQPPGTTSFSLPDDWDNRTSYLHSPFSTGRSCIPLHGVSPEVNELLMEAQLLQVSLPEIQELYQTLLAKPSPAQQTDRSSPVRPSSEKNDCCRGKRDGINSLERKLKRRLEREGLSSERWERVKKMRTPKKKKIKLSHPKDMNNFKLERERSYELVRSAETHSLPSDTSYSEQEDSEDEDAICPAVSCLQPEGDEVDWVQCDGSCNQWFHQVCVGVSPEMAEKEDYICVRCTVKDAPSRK
Description: (§3) KDM5A and 5B were tested using CisBio HTRF assay platform by Reaction Biology Corp (Malvern, PA). All concentrations are final unless noted otherwise. Inhibitors were pre-incubated with 2.5 nM KDM5A or 1.2 nM KDM5B in a 5 μL reaction mixture containing 50 mM HEPES (pH 7.5), 50 mM NaCl, 0.01% Tween 20, 0.01% BSA for 15 min temperature. The reaction was initiated by addition of 5 μL of 50 nM Biotin-H3K4me3 and incubated with gentle shaking for 45 min at RT. The reaction was quenched with 10 mM EDTA and 200 mM potassium fluoride. Upon addition of Eu-Antibody and Streptavidine-XL665, the mixture was incubated for 2 hours in the dark. The fluorescence resonance energy transfer was measured using an excitation wavelength of 320 nm and emission wavelength of 665 nm on an Envision plate reader (Perkin Elmer).
as §2

[5] = molecular target: KDM6A (Homo sapiens, UniProt O15550); assay: KDM6A enzymatic assay (AlphaLISA); type: biochemical; details: enzyme concentration 2 nM
Description: as §1, §2

[6] = molecular target: T2, KDM4B (Homo sapiens, UniProt O94953); assay: KDM4B enzymatic assay (AlphaLISA); type: biochemical; details: enzyme concentration 1 nM
T2 sequence (O94953 1-1096): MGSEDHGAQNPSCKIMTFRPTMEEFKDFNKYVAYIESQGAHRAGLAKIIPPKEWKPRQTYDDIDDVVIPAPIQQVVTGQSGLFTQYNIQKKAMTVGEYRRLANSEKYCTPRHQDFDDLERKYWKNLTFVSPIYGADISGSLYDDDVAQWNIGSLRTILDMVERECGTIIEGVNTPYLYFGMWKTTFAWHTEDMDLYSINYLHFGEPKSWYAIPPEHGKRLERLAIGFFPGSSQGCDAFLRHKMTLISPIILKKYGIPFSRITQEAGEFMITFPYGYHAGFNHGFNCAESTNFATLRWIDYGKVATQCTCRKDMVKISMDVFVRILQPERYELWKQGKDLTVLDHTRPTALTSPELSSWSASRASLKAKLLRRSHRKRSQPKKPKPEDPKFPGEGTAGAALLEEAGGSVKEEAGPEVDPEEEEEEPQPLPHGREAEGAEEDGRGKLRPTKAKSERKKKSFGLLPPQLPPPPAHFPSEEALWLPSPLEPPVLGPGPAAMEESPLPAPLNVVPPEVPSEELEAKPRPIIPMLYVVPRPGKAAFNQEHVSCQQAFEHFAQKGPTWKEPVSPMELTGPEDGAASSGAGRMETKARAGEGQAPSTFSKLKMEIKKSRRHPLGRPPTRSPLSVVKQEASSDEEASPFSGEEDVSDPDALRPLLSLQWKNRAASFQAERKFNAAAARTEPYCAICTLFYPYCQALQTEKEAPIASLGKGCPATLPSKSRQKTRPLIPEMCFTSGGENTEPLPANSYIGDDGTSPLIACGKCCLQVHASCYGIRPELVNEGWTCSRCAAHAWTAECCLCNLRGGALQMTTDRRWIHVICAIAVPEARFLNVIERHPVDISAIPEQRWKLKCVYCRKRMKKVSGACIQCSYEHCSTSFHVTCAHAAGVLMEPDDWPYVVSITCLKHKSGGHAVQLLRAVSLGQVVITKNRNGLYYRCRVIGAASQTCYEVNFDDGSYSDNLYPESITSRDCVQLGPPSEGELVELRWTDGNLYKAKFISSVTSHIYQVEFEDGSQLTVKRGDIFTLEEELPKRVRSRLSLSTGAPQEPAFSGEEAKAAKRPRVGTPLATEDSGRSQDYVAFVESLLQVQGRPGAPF
Description: as §1, §2

[7] = molecular target: T3, KDM5A (Homo sapiens, UniProt P29375); assay: KDM5A enzymatic assay (CisBio HTRF); type: biochemical; details: enzyme concentration 2.5 nM; IC50 lower than enzyme concentration, likely underestimates potency
T3 construct: purchased Reaction Biology Corp (assay run there as a contract service)
T3 sequence (P29375 whole entry): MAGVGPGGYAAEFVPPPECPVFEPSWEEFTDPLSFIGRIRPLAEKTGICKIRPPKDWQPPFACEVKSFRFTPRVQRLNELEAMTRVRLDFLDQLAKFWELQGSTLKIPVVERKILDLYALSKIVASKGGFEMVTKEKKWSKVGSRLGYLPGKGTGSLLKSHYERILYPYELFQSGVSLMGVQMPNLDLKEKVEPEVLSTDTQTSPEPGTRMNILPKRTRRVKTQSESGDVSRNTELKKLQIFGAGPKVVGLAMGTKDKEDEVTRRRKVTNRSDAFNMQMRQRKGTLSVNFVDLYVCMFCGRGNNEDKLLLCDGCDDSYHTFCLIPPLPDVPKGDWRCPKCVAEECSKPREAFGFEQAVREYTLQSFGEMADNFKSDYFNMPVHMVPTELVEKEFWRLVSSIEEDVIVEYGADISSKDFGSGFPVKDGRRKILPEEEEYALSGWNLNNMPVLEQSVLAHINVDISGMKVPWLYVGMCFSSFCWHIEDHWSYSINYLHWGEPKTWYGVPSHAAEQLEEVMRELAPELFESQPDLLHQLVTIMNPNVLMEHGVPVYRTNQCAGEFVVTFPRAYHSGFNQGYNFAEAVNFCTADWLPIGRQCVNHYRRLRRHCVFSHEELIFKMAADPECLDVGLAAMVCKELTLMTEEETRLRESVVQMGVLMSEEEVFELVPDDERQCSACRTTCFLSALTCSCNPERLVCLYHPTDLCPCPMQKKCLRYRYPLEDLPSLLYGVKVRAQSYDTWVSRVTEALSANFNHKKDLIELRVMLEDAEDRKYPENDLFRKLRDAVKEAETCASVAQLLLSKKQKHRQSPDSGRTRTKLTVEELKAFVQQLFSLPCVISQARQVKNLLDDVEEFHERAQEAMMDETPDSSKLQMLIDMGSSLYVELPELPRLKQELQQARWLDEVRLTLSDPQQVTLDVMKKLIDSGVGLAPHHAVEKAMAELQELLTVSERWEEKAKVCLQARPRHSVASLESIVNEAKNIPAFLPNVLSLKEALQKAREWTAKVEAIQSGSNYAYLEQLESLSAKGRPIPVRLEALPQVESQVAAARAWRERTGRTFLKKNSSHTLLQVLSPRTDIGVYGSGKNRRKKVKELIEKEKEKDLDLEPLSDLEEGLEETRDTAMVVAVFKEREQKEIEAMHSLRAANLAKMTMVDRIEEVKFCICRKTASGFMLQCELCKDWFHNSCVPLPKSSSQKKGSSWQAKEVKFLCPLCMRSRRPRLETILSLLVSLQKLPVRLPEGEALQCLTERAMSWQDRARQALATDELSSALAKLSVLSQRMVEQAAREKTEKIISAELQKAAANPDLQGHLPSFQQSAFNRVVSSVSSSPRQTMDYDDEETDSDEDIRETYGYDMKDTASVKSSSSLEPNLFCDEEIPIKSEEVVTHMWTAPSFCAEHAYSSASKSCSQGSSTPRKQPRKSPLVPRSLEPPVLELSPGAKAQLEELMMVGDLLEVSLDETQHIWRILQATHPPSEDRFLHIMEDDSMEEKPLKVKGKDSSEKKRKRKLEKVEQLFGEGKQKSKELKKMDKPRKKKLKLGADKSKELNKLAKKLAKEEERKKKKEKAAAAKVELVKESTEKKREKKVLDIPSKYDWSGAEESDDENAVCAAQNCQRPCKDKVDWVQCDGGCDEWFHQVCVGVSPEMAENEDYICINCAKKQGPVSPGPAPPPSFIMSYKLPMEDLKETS
Description: as §3, §2

[8] = molecular target: T4, KDM2B (Homo sapiens, UniProt Q8NHM5); assay: KDM2B enzymatic assay (AlphaLISA); type: biochemical; details: enzyme concentration 2 nM
T4 sequence (Q8NHM5 1-1336): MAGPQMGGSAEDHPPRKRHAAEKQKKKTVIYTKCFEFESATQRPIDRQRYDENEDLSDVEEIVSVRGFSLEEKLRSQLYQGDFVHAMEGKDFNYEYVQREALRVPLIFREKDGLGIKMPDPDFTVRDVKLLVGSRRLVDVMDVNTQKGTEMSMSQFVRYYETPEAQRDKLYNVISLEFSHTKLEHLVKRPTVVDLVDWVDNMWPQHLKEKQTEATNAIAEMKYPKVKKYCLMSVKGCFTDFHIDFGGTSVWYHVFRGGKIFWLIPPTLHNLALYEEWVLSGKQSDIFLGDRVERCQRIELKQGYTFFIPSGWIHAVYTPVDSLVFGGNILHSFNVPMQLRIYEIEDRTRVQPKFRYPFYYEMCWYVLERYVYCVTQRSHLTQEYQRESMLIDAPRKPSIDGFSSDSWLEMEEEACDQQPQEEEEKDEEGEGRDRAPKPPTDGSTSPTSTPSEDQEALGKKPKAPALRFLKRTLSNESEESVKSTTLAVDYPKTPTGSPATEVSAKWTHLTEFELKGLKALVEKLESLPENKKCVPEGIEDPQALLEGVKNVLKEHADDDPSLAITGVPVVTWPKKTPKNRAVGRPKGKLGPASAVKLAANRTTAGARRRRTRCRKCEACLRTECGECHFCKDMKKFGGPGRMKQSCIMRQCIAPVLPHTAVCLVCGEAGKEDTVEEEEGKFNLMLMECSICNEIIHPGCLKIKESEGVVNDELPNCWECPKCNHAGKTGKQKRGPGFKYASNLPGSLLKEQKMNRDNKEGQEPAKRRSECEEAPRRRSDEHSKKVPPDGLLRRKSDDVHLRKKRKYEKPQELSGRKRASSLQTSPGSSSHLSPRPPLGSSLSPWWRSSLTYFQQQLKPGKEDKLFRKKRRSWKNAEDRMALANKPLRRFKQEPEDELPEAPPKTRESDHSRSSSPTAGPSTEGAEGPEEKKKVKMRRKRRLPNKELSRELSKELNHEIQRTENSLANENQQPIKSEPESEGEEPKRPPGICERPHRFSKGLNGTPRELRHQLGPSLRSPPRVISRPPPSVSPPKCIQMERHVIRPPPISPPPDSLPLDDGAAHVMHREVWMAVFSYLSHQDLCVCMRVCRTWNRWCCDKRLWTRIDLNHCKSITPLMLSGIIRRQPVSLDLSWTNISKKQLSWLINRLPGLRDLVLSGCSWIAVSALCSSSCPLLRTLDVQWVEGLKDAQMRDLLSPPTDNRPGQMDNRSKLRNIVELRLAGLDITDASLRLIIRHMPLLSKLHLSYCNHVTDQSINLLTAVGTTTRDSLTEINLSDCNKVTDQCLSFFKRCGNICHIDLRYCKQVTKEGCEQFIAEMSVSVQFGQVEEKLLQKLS
Description: as §1, §2

[9] = Cytotoxicity CC50, MT-4; type: cell-based; details: human, MT-4 cells (T-lymphoblastoid cell line)
Source text: (§4) a Values represent the geometric mean and multiplicative standard deviation of 3 – 5 primary human hepatocyte (PHH) donors or 5 – 10 independent experiments.
(§5) b MT-4: human T-lymphoblastoid cell line; PBMC: peripheral blood mononuclear cell; Gal-HepG2: galactose adapted human hepatoblastoma cell line; Huh-7: human hepatoma cell line; Gal-PC3: galactose adapted human prostate carcinoma cell line; MRC-5: Medical Research Council 5 embryonal lung fibroblast; NRVM: neonatal rat ventricular cardiomyocytes

[10] = Cytotoxicity CC50, Gal-PC3; type: cell-based; details: human
Source text: as §4, §5

[11] = Cytotoxicity CC50, MRC-5; type: cell-based; details: human, MRC-5 cells (embryonal lung fibroblasts)
Source text: as §4, §5

[12] = Cytotoxicity CC50, Gal-HepG2; type: cell-based; details: human, Gal-HepG2 cells (galactose adapted hepatoblastoma cell line)
Source text: as §4, §5

[13] = Cytotoxicity CC50, Huh-7; type: cell-based; details: human, Huh-7 cells (hepatoma cell line)
Source text: as §4, §5

[14] = Cytotoxicity CC50, PBMC; type: cell-based; details: human, PBMC (peripheral blood mononuclear cells)
Source text: as §4, §5

[15] = Cytotoxicity CC50, NRVM; type: cell-based; details: rat, NRVM (neonatal rat ventricular cardiomyocytes)
Source text: as §4, §5

[16] = Cytotoxicity CC50, PHH; type: cell-based; details: human, primary human hepatocytes (PHH)
Source text: as §4, §5

[17] = molecular target: T5, NSD1 (Homo sapiens, UniProt Q96L73); assay: Histone methyltransferase enzymatic assay, NSD1; type: biochemical; details: enzyme conc. 50 nM
T5 construct: 1538-2696; purchased RBC (read as Reaction Biology Corporation, named)
Description: (§6) Histone methyltransferase assays were performed in 96-well half-area optiplates (PerkinElmer) at room temperature. All concentrations are final unless noted otherwise. Compounds were serially diluted in DMSO and the final DMSO concentration was 1%. A 24 μL reaction mixture contained compound, enzyme, 200 nM of nucleosome or histone substrate, 400 nM ^3H-SAM (83.1 Ci/mmol), 50 mM Tris-HCl (pH 8.0), 50 mM NaCl, 5 mM MgCl2, 1 mM DTT, and 0.01% Tween-20. The plate was sealed, mixed on a Titramax plate shaker at 1200 rpm for 30 sec, and incubated at room temperature for 60 min. The reaction was quenched by addition of 24 μL mixture containing 5 mg/mL PVT-PEI beads and 300 μM unlabeled SAM in water. The plate was sealed, mixed as previously noted, incubated overnight, and read on a TopCount plate reader (PerkinElmer).
as §2

[18] = molecular target: T6, SET7/9 (Homo sapiens, UniProt Q8WTS6); assay: Histone methyltransferase enzymatic assay, SET7/9; type: biochemical; details: enzyme conc. 100 nM
T6 construct: 2-366; purchased RBC (read as Reaction Biology Corporation, named)
Description: as §6, §2

[19] = molecular target: T7, NSD3 (Homo sapiens, UniProt Q9BZ95); assay: Histone methyltransferase enzymatic assay, NSD3; type: biochemical; details: enzyme conc. 100 nM
T7 construct: 1021-1322; purchased RBC (read as Reaction Biology Corporation, named)
T7 sequence (Q9BZ95 1021-1322): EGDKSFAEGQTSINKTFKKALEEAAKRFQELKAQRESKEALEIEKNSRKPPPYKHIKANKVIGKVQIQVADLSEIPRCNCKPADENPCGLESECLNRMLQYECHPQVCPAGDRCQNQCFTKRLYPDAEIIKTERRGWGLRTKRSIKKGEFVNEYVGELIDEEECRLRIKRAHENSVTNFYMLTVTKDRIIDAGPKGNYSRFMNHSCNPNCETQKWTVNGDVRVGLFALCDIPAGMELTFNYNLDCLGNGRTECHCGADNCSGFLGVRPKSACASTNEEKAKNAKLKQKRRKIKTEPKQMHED
Description: as §6, §2

[20] = molecular target: T8, GLP (Homo sapiens, UniProt Q9H9B1); assay: Histone methyltransferase enzymatic assay, GLP; type: biochemical
T8 construct: 894-1298; purchased RBC (read as Reaction Biology Corporation, named)
T8 sequence (Q9H9B1 894-1298): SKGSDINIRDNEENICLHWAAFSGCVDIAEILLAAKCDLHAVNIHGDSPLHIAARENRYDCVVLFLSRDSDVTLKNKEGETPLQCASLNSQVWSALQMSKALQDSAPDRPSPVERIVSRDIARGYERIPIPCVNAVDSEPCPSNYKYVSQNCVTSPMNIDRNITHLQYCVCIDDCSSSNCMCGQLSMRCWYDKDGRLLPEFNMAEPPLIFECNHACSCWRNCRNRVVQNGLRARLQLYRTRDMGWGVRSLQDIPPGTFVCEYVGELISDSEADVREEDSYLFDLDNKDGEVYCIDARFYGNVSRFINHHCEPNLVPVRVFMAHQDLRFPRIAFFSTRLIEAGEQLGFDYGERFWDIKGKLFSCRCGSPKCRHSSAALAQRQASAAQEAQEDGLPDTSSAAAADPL
Description: as §6, §2

[21] = molecular target: T9, SETDB1 (Homo sapiens, UniProt Q15047); assay: Histone methyltransferase enzymatic assay, SETDB1; type: biochemical; details: enzyme conc. 100 nM
T9 construct: 510-1290
Description: as §6, §2

SMILES: Oc1cccc2cccnc12 [8-OH Quinoline, 8-hydroxyquinoline, reference compound]
- IC50 [1]: 6400 nM
- IC50 [2]: 13000 nM

SMILES: CC1=C(/C=C/C(C)=C/C=C/C(C)=C\C(=O)O)C(C)(C)CCC1 [Accutane]
- in vivo antiviral activity [3]: lack of in vivo antiviral activity

SMILES: COc1ccc(C[C@H](N)C(=O)N[C@H]2[C@@H](O)[C@H](n3cnc4c(N(C)C)ncnc43)O[C@@H]2CO)cc1 [Puromycin, reference compound]
- CC50 [9]: 100 nM
- CC50 [10]: 440 nM
- CC50 [11]: 350 nM
- CC50 [12]: 1300 ± 1400 nM
- CC50 [13]: 670 ± 1500 nM
- CC50 [14]: 610 ± 1300 nM
- CC50 [15]: 570 ± 1400 nM
- CC50 [16]: 1600 ± 1800 nM

Continued, values first:

- fold reduced KDM5B inhibitory activity over GS-080 ([4]; IC50 for KDM5B compared with GS-080): 7000 fold
- IC50 ([4]; enzyme concentration 1.2 nM, IC50 lower than enzyme concentration, likely underestimates potency): 2760 nM
SMILES: CCN(CCN(C)C)C(=O)CNCc1cc(C(=O)O)c(Br)cn1 [GS-444]

- IC50 [5]: 99000 nM
- IC50 [6]: 860 nM
- IC50 [7]: 410 nM
- IC50 [8]: 19000 nM
SMILES: O=C(O)c1ccnc(C(=O)O)c1 [PDCA, 2,4-Pyridinedicarboxylic acid, reference compound]

- IC50 [17]: 93000 nM
- IC50 [18]: 70000 nM
- IC50 [19]: 15000 nM
- IC50 [20]: 2200 nM
- IC50 [21]: 17000 nM
SMILES: Nc1ncnc2c1ncn2[C@@H]1O[C@H](CSCC[C@H](N)C(=O)O)[C@@H](O)[C@H]1O [SAH, S-(5′-Adenosyl)-L-homocysteine, reference compound]
